Assay results as given in paper PMC11672637, “7-O-Carboxylic Acid-Substituted 3-O-Alkyl Difluoroquercetin; An Aztreonam-Potentiating Agent Against Carbapenemase-Producing Pseudomonas aeruginosa Through Simultaneous Inhibition of Metallo-β-Lactamase and Efflux Pump” (Antibiotics, 2024).
Like-named read-outs stand apart in the source and are kept apart here.

Key:
Assay in all cases: MIC / checkerboard with ATM
Assay type in all cases: cell-based, P. aeruginosa
PA-035, blaGES = conditions: for MIC: Pseudomonas aeruginosa, read-out: MIC of ATM with 5, PA-035
PA-002, blaIMP = conditions: for MIC: Pseudomonas aeruginosa, read-out: MIC of ATM with 5, PA-002
PA-027, blaIMP = conditions: for MIC: Pseudomonas aeruginosa, read-out: MIC of ATM with 5, PA-027
PA-030, blaIMP = conditions: for MIC: Pseudomonas aeruginosa, read-out: MIC of ATM with 5, PA-030
PA-028, blaNDM = conditions: for MIC: Pseudomonas aeruginosa, read-out: MIC of ATM with 5, PA-028
PA-034, blaNDM = conditions: for MIC: Pseudomonas aeruginosa, read-out: MIC of ATM with 5, PA-034
PA-036, blaNDM = conditions: for MIC: Pseudomonas aeruginosa, read-out: MIC of ATM with 5, PA-036
PA-039, blaNDM = conditions: PA-039

CC(C)(C)CCOc1c(-c2ccc(F)c(F)c2)oc2cc(OCC(=O)O)cc(O)c2c1=O [Compound 5, 2-((2-(3,4-Difluorophenyl)-3-(3,3-dimethylbutoxy)-5-hydroxy-4-oxo-4H-chromen-7-yl)oxy)acetic Acid]
Activity (FICI class) (PA-035, blaGES; PA-035): S (S (Synergy, FICI ≤ 0.5))
Concentrations of ATM and 5 at lowest FICI (ATM/5) (PA-035, blaGES; PA-035): 2/8
Lowest FICI (ATM/5) (PA-035, blaGES; PA-035): 0.27
Susceptibility to ATM (PA-035, blaGES; PA-035, ATM/5): S (S (sensitive, MIC ≤ 8 mg/L))
FD (fold decrease in MIC of ATM with 5) (PA-035, blaGES; PA-035, lowest-FICI combination): 4
MIC (PA-035, blaGES; 5 at 1 mg/L): 8 µg/mL
MIC (PA-035, blaGES; 5 at 2 mg/L): 4 µg/mL
MIC (PA-035, blaGES; 5 at 4 mg/L): 4 µg/mL
MIC (PA-035, blaGES; 5 at 8 mg/L): 2 µg/mL
MIC (PA-035, blaGES; 5 at 16 mg/L): 2 µg/mL
MIC (PA-035, blaGES; 5 at 32 mg/L): 2 µg/mL
MIC (PA-035, blaGES; 5 at 64 mg/L): 2 µg/mL
Activity (FICI class) (PA-002, blaIMP; PA-002): S (S (Synergy, FICI ≤ 0.5))
Concentrations of ATM and 5 at lowest FICI (ATM/5) (PA-002, blaIMP; PA-002): 8/4
Lowest FICI (ATM/5) (PA-002, blaIMP; PA-002): 0.26
Minimum concentration of 5 to make sensitive to ATM (PA-002, blaIMP; PA-002): 4 mg/L
Susceptibility to ATM (PA-002, blaIMP; PA-002, ATM/5): S (S (sensitive, MIC ≤ 8 mg/L))
FD (fold decrease in MIC of ATM with 5) (PA-002, blaIMP; PA-002, lowest-FICI combination): 4
MIC (PA-002, blaIMP; 5 at 1 mg/L): 16 µg/mL
MIC (PA-002, blaIMP; 5 at 2 mg/L): 16 µg/mL
MIC (PA-002, blaIMP; 5 at 4 mg/L): 8 µg/mL
MIC (PA-002, blaIMP; 5 at 8 mg/L): 8 µg/mL
MIC (PA-002, blaIMP; 5 at 16 mg/L): 4 µg/mL
MIC (PA-002, blaIMP; 5 at 32 mg/L): 4 µg/mL
MIC (PA-002, blaIMP; 5 at 64 mg/L): 2 µg/mL
Activity (FICI class) (PA-027, blaIMP; PA-027): S (S (Synergy, FICI ≤ 0.5))
Concentrations of ATM and 5 at lowest FICI (ATM/5) (PA-027, blaIMP; PA-027): 8/4
Lowest FICI (ATM/5) (PA-027, blaIMP; PA-027): 0.26
Minimum concentration of 5 to make sensitive to ATM (PA-027, blaIMP; PA-027): 4 mg/L
Susceptibility to ATM (PA-027, blaIMP; PA-027, ATM/5): S (S (sensitive, MIC ≤ 8 mg/L))
FD (fold decrease in MIC of ATM with 5) (PA-027, blaIMP; PA-027, lowest-FICI combination): 4
MIC (PA-027, blaIMP; 5 at 1 mg/L): 32 µg/mL
MIC (PA-027, blaIMP; 5 at 2 mg/L): 16 µg/mL
MIC (PA-027, blaIMP; 5 at 4 mg/L): 8 µg/mL
MIC (PA-027, blaIMP; 5 at 8 mg/L): 4 µg/mL
MIC (PA-027, blaIMP; 5 at 16 mg/L): 2 µg/mL
MIC (PA-027, blaIMP; 5 at 32 mg/L): 2 µg/mL
MIC (PA-027, blaIMP; 5 at 64 mg/L): 2 µg/mL
Activity (FICI class) (PA-030, blaIMP; PA-030): S (S (Synergy, FICI ≤ 0.5))
Concentrations of ATM and 5 at lowest FICI (ATM/5) (PA-030, blaIMP; PA-030): 16/4
Lowest FICI (ATM/5) (PA-030, blaIMP; PA-030): 0.26
Minimum concentration of 5 to make sensitive to ATM (PA-030, blaIMP; PA-030): 16 mg/L
Susceptibility to ATM (PA-030, blaIMP; PA-030, ATM/5): S (S (sensitive, MIC ≤ 8 mg/L))
FD (fold decrease in MIC of ATM with 5) (PA-030, blaIMP; PA-030, lowest-FICI combination): 4
MIC (PA-030, blaIMP; 5 at 1 mg/L): 32 µg/mL
MIC (PA-030, blaIMP; 5 at 2 mg/L): 32 µg/mL
MIC (PA-030, blaIMP; 5 at 4 mg/L): 16 µg/mL
MIC (PA-030, blaIMP; 5 at 8 mg/L): 16 µg/mL
MIC (PA-030, blaIMP; 5 at 16 mg/L): 8 µg/mL
MIC (PA-030, blaIMP; 5 at 32 mg/L): 8 µg/mL
MIC (PA-030, blaIMP; 5 at 64 mg/L): 4 µg/mL
Activity (FICI class) (PA-028, blaNDM; PA-028): S (S (Synergy, FICI ≤ 0.5))
Concentrations of ATM and 5 at lowest FICI (ATM/5) (PA-028, blaNDM; PA-028): 2/2
Lowest FICI (ATM/5) (PA-028, blaNDM; PA-028): 0.25
Susceptibility to ATM (PA-028, blaNDM; PA-028, ATM/5): S (S (sensitive, MIC ≤ 8 mg/L))
FD (fold decrease in MIC of ATM with 5) (PA-028, blaNDM; PA-028, lowest-FICI combination): 4
MIC (PA-028, blaNDM; 5 at 1 mg/L): 4 µg/mL
MIC (PA-028, blaNDM; 5 at 2 mg/L): 2 µg/mL
MIC (PA-028, blaNDM; 5 at 4 mg/L): 2 µg/mL
MIC (PA-028, blaNDM; 5 at 8 mg/L): 2 µg/mL
MIC (PA-028, blaNDM; 5 at 16 mg/L): 1 µg/mL
MIC (PA-028, blaNDM; 5 at 32 mg/L): 1 µg/mL
MIC (PA-028, blaNDM; 5 at 64 mg/L): 1 µg/mL
Activity (FICI class) (PA-034, blaNDM; PA-034): S (S (Synergy, FICI ≤ 0.5))
Concentrations of ATM and 5 at lowest FICI (ATM/5) (PA-034, blaNDM; PA-034): 4/8
Lowest FICI (ATM/5) (PA-034, blaNDM; PA-034): 0.27
Minimum concentration of 5 to make sensitive to ATM (PA-034, blaNDM; PA-034): 4 mg/L
Susceptibility to ATM (PA-034, blaNDM; PA-034, ATM/5): S (S (sensitive, MIC ≤ 8 mg/L))
FD (fold decrease in MIC of ATM with 5) (PA-034, blaNDM; PA-034, lowest-FICI combination): 4
MIC (PA-034, blaNDM; 5 at 1 mg/L): 16 µg/mL
MIC (PA-034, blaNDM; 5 at 2 mg/L): 16 µg/mL
MIC (PA-034, blaNDM; 5 at 4 mg/L): 8 µg/mL
MIC (PA-034, blaNDM; 5 at 8 mg/L): 4 µg/mL
MIC (PA-034, blaNDM; 5 at 16 mg/L): 4 µg/mL
MIC (PA-034, blaNDM; 5 at 32 mg/L): 4 µg/mL
MIC (PA-034, blaNDM; 5 at 64 mg/L): 4 µg/mL
Activity (FICI class) (PA-036, blaNDM; PA-036): S (S (Synergy, FICI ≤ 0.5))
Concentrations of ATM and 5 at lowest FICI (ATM/5) (PA-036, blaNDM; PA-036): 4/8
Lowest FICI (ATM/5) (PA-036, blaNDM; PA-036): 0.27
Minimum concentration of 5 to make sensitive to ATM (PA-036, blaNDM; PA-036): 4 mg/L
Susceptibility to ATM (PA-036, blaNDM; PA-036, ATM/5): S (S (sensitive, MIC ≤ 8 mg/L))
FD (fold decrease in MIC of ATM with 5) (PA-036, blaNDM; PA-036, lowest-FICI combination): 4
MIC (PA-036, blaNDM; 5 at 1 mg/L): 16 µg/mL
MIC (PA-036, blaNDM; 5 at 2 mg/L): 16 µg/mL
MIC (PA-036, blaNDM; 5 at 4 mg/L): 8 µg/mL
MIC (PA-036, blaNDM; 5 at 8 mg/L): 4 µg/mL
MIC (PA-036, blaNDM; 5 at 16 mg/L): 4 µg/mL
MIC (PA-036, blaNDM; 5 at 32 mg/L): 4 µg/mL
MIC (PA-036, blaNDM; 5 at 64 mg/L): 4 µg/mL
Activity (FICI class) (PA-039, blaNDM): S (S (Synergy, FICI ≤ 0.5))
Concentrations of ATM and 5 at lowest FICI (ATM/5) (PA-039, blaNDM): 4/8
Lowest FICI (ATM/5) (PA-039, blaNDM): 0.27
Minimum concentration of 5 to make sensitive to ATM (PA-039, blaNDM): 4 mg/L
